For four molecules, IC50, Ratio IC50 and inhibition results are on record in ChEMBL document CHEMBL4311934, “Exploration of [2 + 2 + 2] cyclotrimerisation methodology to prepare tetrahydroisoquinoline-based compounds with potential aldo-keto reductase 1C3 target affinity” (Medchemcomm, 2019).

Test [1] addresses T1, Aldo-keto reductase family 1 member C3 (Homo sapiens, UniProt P42330).
T1 sequence (P42330 whole entry): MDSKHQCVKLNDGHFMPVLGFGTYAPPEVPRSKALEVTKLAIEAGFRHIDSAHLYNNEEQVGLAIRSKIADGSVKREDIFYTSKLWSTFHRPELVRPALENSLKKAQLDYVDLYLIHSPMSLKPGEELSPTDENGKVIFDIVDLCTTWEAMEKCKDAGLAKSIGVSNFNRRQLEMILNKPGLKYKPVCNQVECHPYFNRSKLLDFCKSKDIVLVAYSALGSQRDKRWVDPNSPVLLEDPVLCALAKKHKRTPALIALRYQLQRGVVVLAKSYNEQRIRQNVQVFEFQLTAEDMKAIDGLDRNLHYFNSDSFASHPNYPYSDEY
Kind of test: Inhibition of N-terminal GST-tagged recombinant human AKR1C3 expressed in Escherichia coli BL21 (DE) Codon Plus RP cells assessed as reduction in NADPH production using S-tetralol as substrate in presence of NADP+ by fluorimetry assay.

Test [2] concerns the target T2, Aldo-keto reductase family 1 member C2 (Homo sapiens, UniProt P52895).
T2 sequence (P52895 whole entry): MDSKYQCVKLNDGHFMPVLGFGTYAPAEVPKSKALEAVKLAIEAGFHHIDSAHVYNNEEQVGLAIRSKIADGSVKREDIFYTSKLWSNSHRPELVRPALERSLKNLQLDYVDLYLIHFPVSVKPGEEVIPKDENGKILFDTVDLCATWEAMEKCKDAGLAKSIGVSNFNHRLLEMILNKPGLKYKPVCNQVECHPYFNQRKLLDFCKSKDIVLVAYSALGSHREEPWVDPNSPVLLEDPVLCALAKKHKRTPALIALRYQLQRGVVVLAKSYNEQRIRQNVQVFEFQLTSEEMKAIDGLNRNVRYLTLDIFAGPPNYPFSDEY
Kind of test: Inhibition of N-terminal GST-tagged recombinant human AKR1C2 expressed in Escherichia coli BL21 (DE) Codon Plus RP cells assessed as reduction in NADPH production using S-tetralol as substrate in presence of NADP+ by fluorimetry assay.

The species named for test [3] is Homo sapiens. In words: Selectivity index, ratio of IC50 for N-terminal GST-tagged recombinant human AKR1C2 expressed in Escherichia coli BL21 (DE) Codon Plus RP cells to IC50 for N-terminal GST-tagged recombinant human AKR1C3 expressed in Escherichia coli BL21 (DE) Codon Plus RP cells.
In test [4] the target is T3, Aldo-keto reductase family 1 member C3 (Homo sapiens) (UniProt P42330).
T3 sequence (whole entry): T1 sequence (P42330 whole entry)
In words: Inhibition of N-terminal GST-tagged recombinant human AKR1C3 expressed in Escherichia coli BL21 (DE) Codon Plus RP cells assessed as reduction in NADPH production at 50 uM using S-tetralol as substrate in presence of NADP+ by fluorimetry assay relative to control.

Test [5] addresses T4, Aldo-keto reductase family 1 member C2 (Homo sapiens) (UniProt P52895).
T4 sequence (whole entry): T2 sequence (P52895 whole entry)
Kind of test: Inhibition of N-terminal GST-tagged recombinant human AKR1C2 expressed in Escherichia coli BL21 (DE) Codon Plus RP cells assessed as reduction in NADPH production 50 uM using S-tetralol as substrate in presence of NADP+ by fluorimetry assay relative to control.

Molecules are shown by their SMILES. A value given as a limit tells only on which side of the number the result lay.

For `O=C(O)c1cc2c(cc1C(=O)O)CN1C(=O)CCC1C2` (stereo unspecified), the IC50 (usually the concentration at which inhibition is half-maximal) in test [1] is 23.1 µM; in test [2] it was 27.3 µM.
Turning to `COc1ccc2cc3[n+](cc2c1OC)CCc1cc2c(cc1-3)OCO2` [BERBERINE], the results for the IC50 in test [1] and in test [2] were 5.9 µM and 6.71 µM, respectively.
On to `CCOC(=O)c1cc2c(cc1C(=O)OCC)CN1C(=O)CCC1C2` (stereo unspecified), for which the Ratio IC50 in test [3] amounted to 8. Also, the values for the IC50 in test [1] and in test [2] were 11.7 µM and 96.2 µM, respectively.
Turning to `O=C1CCC2Cc3cc(CO)c(CO)cc3CN12` (stereo unspecified), the IC50 in test [1] and in test [2] was more than 50 µM throughout. The inhibition (usually the drop in the measured response relative to a control, in per cent) is 25% in test [4] and 26.9% in test [5].
